# Measured values from the supplement of paper PMC8149375.
# How the values were obtained:
# Conditions in all cases: treatment: drug alone; 5 days
# 769-P [1] = experiment: GI50, drug alone; higher = less potent
# Description: (§1)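 Primary HTS: 8 RCC cell lines treated with 8 doses (up to 10 uM) of each library drug alone for 5 days; viability read by CellTiter-Glo and normalised to DMSO. GI50 was fitted with XLfit (4-parameter), AUC is the area under the dose-response curve, and minimum viability is the lowest fraction of DMSO viability across doses.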
# 786-O [2] = experiment: GI50, drug alone; higher = less potent
# Description: as §1
# A498 [3] = experiment: GI50, drug alone; higher = less potent
# Description: as §1
# ACHN [4] = experiment: GI50, drug alone; higher = less potent
# Description: as §1
# CAKI-1 [5] = experiment: GI50, drug alone; higher = less potent
# Description: as §1
# SN12C [6] = experiment: GI50, drug alone; higher = less potent
# Description: as §1
# TK-10 [7] = experiment: GI50, drug alone; higher = less potent
# Description: as §1
# UO-31 [8] = experiment: GI50, drug alone; higher = less potent
# Description: as §1
# 769-P [9] = experiment: minimum viability across doses, drug alone, relative to DMSO (fraction); higher = less growth inhibition
# Description: as §1
# 786-O [10] = experiment: as above
# Description: as §1
# A498 [11] = experiment: as above
# Description: as §1
# ACHN [12] = experiment: as above
# Description: as §1
# CAKI-1 [13] = experiment: as above
# Description: as §1
# SN12C [14] = experiment: as above
# Description: as §1
# TK-10 [15] = experiment: as above
# Description: as §1
# UO-31 [16] = experiment: as above
# Description: as §1
# 769-P [17] = experiment: AUC of dose-response viability curve, drug alone (arbitrary (AUC of normalised viability)); higher = less growth inhibition
# Description: as §1
# 786-O [18] = experiment: as above
# Description: as §1
# A498 [19] = experiment: as above
# Description: as §1
# ACHN [20] = experiment: as above
# Description: as §1
# CAKI-1 [21] = experiment: as above
# Description: as §1
# SN12C [22] = experiment: as above
# Description: as §1
# TK-10 [23] = experiment: as above
# Description: as §1
# UO-31 [24] = experiment: as above
# Description: as §1
"GI50, drug alone (786-O [2]) [µM]","GI50, drug alone (ACHN [4]) [µM]",Structure (SMILES),"GI50, drug alone (769-P [1]) [µM]","GI50, drug alone (A498 [3]) [µM]","GI50, drug alone (CAKI-1 [5]) [µM]","GI50, drug alone (SN12C [6]) [µM]","GI50, drug alone (TK-10 [7]) [µM]","GI50, drug alone (UO-31 [8]) [µM]",minimum viability across doses (769-P [9]),minimum viability across doses (786-O [10]),minimum viability across doses (A498 [11]),minimum viability across doses (ACHN [12]),minimum viability across doses (CAKI-1 [13]),minimum viability across doses (SN12C [14]),minimum viability across doses (TK-10 [15]),minimum viability across doses (UO-31 [16]),AUC of dose-response viability curve (769-P [17]),AUC of dose-response viability curve (786-O [18]),AUC of dose-response viability curve (A498 [19]),AUC of dose-response viability curve (ACHN [20]),AUC of dose-response viability curve (CAKI-1 [21]),AUC of dose-response viability curve (SN12C [22]),AUC of dose-response viability curve (TK-10 [23]),AUC of dose-response viability curve (UO-31 [24])
0.134,0.258,CC(C)(C)c1cnc(CSc2cnc(NC(=O)C3CCNCC3)s2)o1,1.44,0.147,0.558,0.149,0.501,0.269,0.0214,0.0038,0.00845,0.00527,0.0689,0.012,0.156,0.0096,2.51,1.5,1.58,1.76,2.39,1.69,2.22,1.87
> 10,> 10,O=C1NC(=O)C(c2ccccc2[N+](=O)[O-])=C1Nc1ccc(O)c(Cl)c1,> 10,> 10,> 10,> 10,> 10,> 10,0.898,0.559,0.922,0.879,0.869,0.802,0.804,0.634,3.29,2.33,3.58,3.39,3.4,3.05,3.02,4
> 10,> 10,CCn1c(N)c(C(=O)NC)c(=O)c2ccc(C#C[C@@](C)(O)COC)nc21,> 10,> 10,> 10,> 10,> 10,> 10,1.02,0.869,0.887,0.909,0.845,0.849,0.9,0.992,3.92,3.31,3.88,3.52,3.62,3.44,3.45,4.24
0.366,0.0953,CNC(=O)c1nn(C)c2c1C(C)(C)Cc1cnc(Nc3ccc(N4CCN(C)CC4)cc3)nc1-2,1,4.8,0.174,0.957,0.311,1.33,0.0249,0.00535,0.0273,0.0129,0.0591,0.0145,0.177,0.0155,2.48,2.22,3.76,1.53,1.81,2.54,2.06,2.64
> 10,9.97,Oc1ccc(-c2nc(-c3ccc(F)cc3)c(-c3ccncc3)[nH]2)cc1,> 10,> 10,> 10,> 10,> 10,> 10,0.904,0.65,1.02,0.473,0.637,0.936,0.659,0.308,3.41,3.04,4.09,2.91,3.25,3.4,2.88,4.47
